Measured values reported in patent US8597664B2, “Endogenous adjuvant molecules and uses thereof” (University of Massachusetts, priority 2003, dated 2013).

Columns and labels:
dendritic cells = experiment: Expression of CD80 and CD86 on dendritic cells from TLR4+/+ or TLR4-/- mice; type: cell-based, C57BL/6 (TLR4+/+) or C.C3H lps-d (TLR4-/-) mice; settings: 6 hours
Protocol: (§1) Bone marrow was cultured for 7 days in media containing 10 u/ml of both GM-CSF and IL-4, as previously described.^24 Fresh media (50% volume) containing cytokines was added at the 4th day of culture. At day 7, floating cells were removed by aspiration after gentle rocking, and soluble or crystalline uric acid was added. Following a 6 hour incubation, the media was gently removed and replaced with PBS containing either 0.5% heparin (sigma) or 0.5 μM polyvinyl sulfate (100 KD, Sigma) in order to detach bound crystals. Following a 10 minute incubation, cells were gently removed by scraping, washed once in 50 ml of media and 3 times with 50 ml of PBS in order to dissolve any remaining crystals, and then stained and assayed by flow cytometry as previously described.^15 To quantify MSU crystal formation in culture, a parallel set of wells was prepared without dendritic cells, and the crystals harvested by centrifugation, washed with absolute alcohol and dissolved in 0.1N NaOH. The amount of uric acid in the solubilized precipitates was determined by measuring UV absorption at 292 nm against a set of standard uric acid/NaOH solutions.
As discussed in Example III, LPS has a stimulatory activity and is frequently a contaminant of reagents. Dendritic cells from the TLR4-null mice were examined to verify that LPS was not the source of the observed stimulatory activity.

[1] = system: CD8 T cell (CTL) responses to particulate HIV gp120 antigen; experiment: CTL priming after co-injection of adjuvant with gp120/latex beads (51Cr-release CTL assay); type: in vivo, Balb/c mice
Protocol: Immunization of mice with antigen-polystyrene beads (2-10 μg) +/− cytosolic fractions and assays for the priming of CTL were performed as previously described ^16. Fractions from the GF-250 column were injected without further manipulation, while fractions from all other columns were dried and reconstituted to normal osmolarity before injection. Fractions from 1%-10% of liver cytosol were typically injected into mice. Pooled fractions without adjuvant activity were standardly used as negative controls. For in vitro stimulation, splenocytes from immunized mice were stimulated directly with 10^−8 M peptide (RGPGRAFVTL-SEQ ID NO: 1 or SIINFEKL-SEQ ID NO: 2) and were then assayed as previously described.^16
Each four consecutive fractions (4 minutes) were pooled and tested for their ability to augment the priming of CD8 T cell responses when co-injected with particulate HIV gp120 antigen. After 14 days, splenocytes were harvested from the primed animals and were stimulated ex vivo with either antigen-transfected or peptide-pulsed syngeneic cells. The re-stimulated cells were then assayed for their ability to kill antigen-bearing target cells in a standard ^51Cr-release as say.^16
To further evaluate this point, highly purified uric acid was tested for adjuvant activity. Highly purified uric acid (50 μg), highly purified LMW fraction from a C18 column, or PBS as control were mixed with 5 μg gp120/latex beads in 100 μl of saline and injected into two Balb/c mice. CTL from these mice were assayed for killing of 15.12 (gp120-transfected 3T3) cells (filled triangles), or vector-transfected control 3T3 cells (open squares). Results from individual mice are presented (FIG. 3A-C, wherein % Lysis indicates the degree of cell killing and the E:T ratio indicates the ratio of Effector cell:Target cell, e.g., the ratio of cytotoxic T-cell: antigen positive target cell).
To determine more precisely the amount of uric acid necessary to provide an adjuvant effect in vivo, the amount of uric acid injected into mice was titrated from 2.5-40 μg (in 100 μl; from a concentration of 25-400 μg/ml) and adjuvant activity assayed as described in Example II above. […] This amount of uric acid is produced by about 2×10^6 UV-treated 3T3 cells (See FIG. 3J).
To further evaluate the activity of xanthine crystals, xanthine crystals were tested for adjuvant activity in experiments carried out similarly to those described in Example II above. Highly purified uric acid (500 μg), highly purified xanthine (500 μg), or PBS as control were mixed with 2 μg gp120/latex beads in 100 μl of saline and injected into two Balb/c mice. CTL from these mice were assayed for killing of 15.12 (gp120-transfected 3T3) cells (filled squares). Results from individual mice are presented (FIG. 6A-C), wherein % Lysis indicates the degree of cell killing and the E:T ratio indicates the ratio of Effector cell:Target cell, e.g., the ratio of cytotoxic T-cell:antigen presenting cell.

EL4 cells = experiment: Uric acid measurement in the cytosol of treated cells; type: cell-based; settings: 25 μg/ml cycloheximide or 8 μM emetine, after 5 hours; untreated cells below limit of detection
Protocol: EL4 cells (10^8) were resuspended in 5 ml of culture media and incubated at 37° C. for 5 hours after being treated for one hour with emetine^16 or cycloheximide or heat shocked for 20 minutes at 45° C. (see FIG. 3J). 3T3 cells grown in 15 cm dishes were either untreated or exposed to UV light for 5 minutes and incubated in 5 hours. The cells were suspended without washing and disrupted by nitrogen cavitation followed by centrifugation, as described.^16 The resulting supernatants were diluted with 0.1 M borate, and analyzed for uric acid content using a uric acid detection kit (Molecular Probes).
EL4 cells were either heat shocked for 20 minutes at 45° C., incubated with 25 μg/ml cycloheximide, incubated with 8 μM emetine or untreated as control. 3T3 cells were either UV-irradiated or untreated as control. These treatments were previously shown by the instant inventors to increase adjuvant activity. The amount of uric acid in the cytosol of the treated cells was determined after 5 hours of incubation. […] An approximately 4-fold increase in uric acid was also observed when 3T3 cells were treated with UV (FIG. 3J).

[2] = Toxicity observed in the Examples; type: in vivo; settings: as used in the Examples
Text: With respect to potential toxicity of the crystalline adjuvant, local reaction to injections or other morbidity of animals immunized with any adjuvant within the scope of the invention, e.g., a crystalline adjuvant, can be readily determined. With respect to the crystalline adjuvants of the present invention displaying characteristics similar to uric acid or xanthine, significant toxicity is not expected. […] Uric acid and xanthine are normal components of mammals and local administration should be relatively safe. Uric acid is effective when injected subcutaneously, which is an effective and well tolerated immunization protocol. Uric acid and xanthine thus have favorable characteristics for an adjuvant, and crystalline molecules having similar characteristics, such as those described herein, are also expected to behave favorably as immune adjuvants.

[3] = system: CD8 T cell (CTL) responses to particulate HIV gp120 antigen; experiment: CTL priming after co-injection with antigen in LPS-nonresponsive TLR4 null mice; type: in vivo, C.C3H lps-d (TLR4-/-) mice; settings: injected together with antigen
Protocol: Lipopolysaccharide (LPS) has potent immunostimulatory activity and is a frequent contaminant of buffers and other reagents. Although every attempt was made to avoid contamination of preparations with endotoxin, it was important to exclude the possibility that LPS was present in the LMW fraction and responsible for the adjuvant activity. Accordingly, similar experiments to those of Example II were carried out except that purified LMW fraction or commercially-obtained highly purified uric acid was injected together with antigen into toll-like receptor 4 (TLR4) null mice, which are nonresponsive to LPS. Specifically, congenic C.C3H lps-d (TLR4−/−) mice were used in place of Balb/c (TLR4+/+) mice.

[4] = system: bone marrow-derived dendritic cells (CD11c+); experiment: Expression of CD80 and CD86 on bone marrow-derived dendritic cells by flow cytometry; type: cell-based, Balb/c mice
Protocol: as §1
Accordingly, the effect of uric acid on expression of costimulators on cultured dendritic cells was tested. Uric acid was added to cultures of primary bone-marrow derived dendritic cells. Specifically, bone marrow-derived dendritic cells from Balb/c mice in 6 well plates were untreated (thin continuous line) or incubated with 20 μl of pre-formed MSU crystals (about 1.2 mg/ml final concentration) for 6 hours (heavy dashed lines) or 24 hours (heavy continuous lines). The expression of CD80 and CD86 on CD11c+ cells was then analyzed by flow cytometry.
Based upon the results set forth in Examples I-VI which identify MSU crystals as having adjuvant activity, it was concluded that other crystals with similar properties should display djuvant activity. […] The expression of CD86 on CD11c+ cells was then analyzed by flow cytometry.

[5] = Precipitation of uric acid to MSU crystals; type: physicochemical; settings: uric acid 70 μg/ml
Protocol: as §1
As discussed in Example III, LPS has a stimulatory activity and is frequently a contaminant of reagents. Dendritic cells from the TLR4-null mice were examined to verify that LPS was not the source of the observed stimulatory activity. […]

[6] = reported (ref. 18); cited from earlier work

SMILES: O=c1[nH]c(=O)c2[nH]c([O-])nc2[nH]1.[Na+] [MSU crystals, monosodium urate]
- stimulatory effect on dendritic cells from TLR4-null mice (dendritic cells; C.C3H lps-d (TLR4-/-) cells): the stimulatory effect was also found
- stimulatory effect on dendritic cells (CD80, CD86) compared with LPS (dendritic cells; MSU crystals about 1.2 mg/ml versus 1 μg/ml LPS): stronger than that induced by high concentrations of LPS
- stimulation of dendritic cells in vitro, preformed crystals versus soluble uric acid (dendritic cells; preformed MSU crystals about 1.2 mg/ml, soluble uric acid 70 μg/ml): highly stimulatory
- activity of preformed crystals injected in vivo ([1]; preformed MSU crystals): active

SMILES: C[C@@H]1C[C@@H]([C@H](O)CC2CC(=O)NC(=O)C2)C(=O)[C@@H](C)C1 [cycloheximide]
- uric acid in the cytosol of treated EL4 cells (EL4 cells): increased dramatically

SMILES: CC[C@H]1CN2CCc3cc(OC)c(OC)cc3[C@@H]2C[C@@H]1C[C@H]1NCCc2cc(OC)c(OC)cc21 [emetine]
- uric acid in the cytosol of treated EL4 cells (EL4 cells): increased dramatically

SMILES: O=c1[nH]c(=O)c2[nH]c(=O)[nH]c2[nH]1 [uric acid]
- toxicity [2]: have not been observed
- adjuvant activity in LPS-nonresponsive mice [3]: had adjuvant activity
- expression of CD86 on CD11c+ dendritic cells ([4]; 20 μl pre-formed MSU crystals (about 1.2 mg/ml final), 6 or 24 hours): markedly and rapidly
- correlation of dendritic cell activation (CD86) with crystal formation ([4]; uric acid titrated in culture, 24 hours): stimulated at precisely the concentrations of uric acid that led to crystal formation
- crystal precipitation in dendritic cell culture [5]: crystals do not precipitate within 6 hours
- CTL priming ([1]; 50 μg uric acid mixed with 5 μg gp120/latex beads in 100 μl saline): enhanced CTL priming to a similar degree as the purified LMW fraction
- adjuvant effect ([1]; 10-50 μg of uric acid in 100 μl): strong adjuvant effect
- amount of uric acid providing an adjuvant effect when injected in vivo ([1]; titrated from 2.5-40 μg in 100 μl): about 10 μg
- concentration of uric acid providing an adjuvant effect when injected in vivo ([1]; titrated from 25-400 μg/ml, 100 μl injected): ~100 µg/mL
- concentration at which uric acid precipitates in vivo [6]: > 70 µg/mL

SMILES: O=c1[nH]c(=O)c2[nH]cnc2[nH]1 [xanthine]
- toxicity [2]: have not been observed
- expression of CD86 on CD11c+ dendritic cells ([4]; pre-formed crystals at 300 μg/ml final concentration, 6 hours): increase their expression of CD86 markedly
- CTL priming ([1]; 500 μg crystals mixed with 2 μg gp120/latex beads in 100 μl saline): enhanced CTL priming to a similar degree as the MSU crystals
